Data as given in patent publication US9221756B2, “Pyrrole derivatives” (priority 2011, dated 2015).

target: pneumolysin (Streptococcus pneumoniae serotype 2, UniProt Q04IN8); test: Inhibition of the haemolytic activity of pneumolysin (sheep erythrocytes); type: cell-based; settings: IC50, inhibition of pneumolysin-induced haemolysis of sheep erythrocytes; class symbols of Table 1
Sequence (Q04IN8 whole entry): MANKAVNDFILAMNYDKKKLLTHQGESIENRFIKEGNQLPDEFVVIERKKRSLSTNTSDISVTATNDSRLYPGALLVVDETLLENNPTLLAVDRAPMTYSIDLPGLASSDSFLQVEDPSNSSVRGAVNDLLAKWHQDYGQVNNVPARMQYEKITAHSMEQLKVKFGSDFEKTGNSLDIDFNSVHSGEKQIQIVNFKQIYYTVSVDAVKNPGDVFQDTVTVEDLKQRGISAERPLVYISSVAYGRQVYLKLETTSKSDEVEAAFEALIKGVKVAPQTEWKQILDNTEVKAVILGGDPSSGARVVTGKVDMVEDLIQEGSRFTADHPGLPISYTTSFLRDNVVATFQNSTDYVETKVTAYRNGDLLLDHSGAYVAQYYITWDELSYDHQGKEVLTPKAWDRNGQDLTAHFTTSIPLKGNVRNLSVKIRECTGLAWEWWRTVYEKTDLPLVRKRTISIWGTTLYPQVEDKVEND

Question: With `COc1ccc(-n2c(C(=O)N(C)C)c(OC(=O)C3CCNCC3)c(OC(=O)C3CCNCC3)c2C(=O)N(C)C)cc1` [UL1-123, 2,5-bis(dimethylcarbamoyl)-1-(4-methoxyphenyl)-1H-pyrrole-3,4-diyl bis(piperidine-4-carboxylate)] as the compound, how does the IC50 read?
Answer: < 10 µM

Question: With `COc1ccc(-n2c(C(=O)N(C)C)c(OC(=O)c3ccc(COP(=O)(O)O)cc3)c(OC(=O)c3ccc(COP(=O)(O)O)cc3)c2C(=O)N(C)C)cc1` [UL1-124, 2,5-bis(dimethylcarbamoyl)-1-(4-methoxyphenyl)-1H-pyrrole-3,4-diyl bis(4-((phosphonooxy)methyl)benzoate)] as the compound, how does the IC50 read?
Answer: < 10 µM

Question: For `COc1ccc(-n2c(C(=O)N(C)C)c(O)c(O)c2P(C)(C)=O)cc1` [UL1-125, 5-(dimethylphosphoryl)-3,4-dihydroxy-1-(4-methoxyphenyl)-N,N-dimethyl-1H-pyrrole-2-carboxamide], which IC50 is on record?
Answer: < 10 µM

Question: For `COc1ccc(-n2c(C(=O)N(C)C)c(OC(=O)[C@H]3CC[C@H](COP(=O)(O)O)CC3)c(OC(=O)[C@H]3CC[C@H](COP(=O)(O)O)CC3)c2C(=O)N(C)C)cc1` [UL1-126, (1R,1′R,4R,4′R)-2,5-bis(dimethylcarbamoyl)-1-(4-methoxyphenyl)-1H-pyrrole-3,4-diyl bis(4-((phosphonooxy)methyl)cyclohexanecarboxylate)], which IC50 is on record?
Answer: < 10 µM

Question: How did the IC50 turn out when `CCOC(=O)c1c(O)c(O)c(C(=O)OCC)n1-c1ccccc1` [UL2-002, diethyl 3,4-dihydroxy-1-phenyl-1H-pyrrole-2,5-dicarboxylate] was run?
Answer: < 10 µM

Question: With `CCOC(=O)c1c(O)c(O)c(C(=O)OCC)n1-c1ccc(F)cc1` [UL2-003, diethyl 1-(4-fluorophenyl)-3,4-dihydroxy-1H-pyrrole-2,5-dicarboxylate] as the compound, how does the IC50 read?
Answer: 10 to 20 µM

Question: `CCOC(=O)c1c(O)c(O)c(C(=O)OCC)n1-c1cccc(OC)c1` [UL2-004, diethyl 3,4-dihydroxy-1-(3-methoxyphenyl)-1H-pyrrole-2,5-dicarboxylate] was tested. Which IC50 did it give?
Answer: 10 to 20 µM

Question: How did the IC50 turn out when `CCOC(=O)c1c(O)c(O)c(C(=O)OCC)n1-c1ccc(OC(F)(F)F)cc1` [UL2-005, diethyl 3,4-dihydroxy-1-(4-(trifluoromethoxy)phenyl)-1H-pyrrole-2,5-dicarboxylate] was run?
Answer: < 10 µM

Question: With `CCOC(=O)c1c(O)c(O)c(C(=O)OCC)n1-c1ccc(C(C)C)cc1` [UL2-006, diethyl 3,4-dihydroxy-1-(4-isopropylphenyl)-1H-pyrrole-2,5-dicarboxylate] as the compound, how does the IC50 read?
Answer: < 10 µM

Question: How did the IC50 turn out when `CCOC(=O)c1c(O)c(O)c(C(=O)OCC)n1-c1ccc(Oc2ccccc2)cc1` [UL2-007, diethyl 3,4-dihydroxy-1-(4-phenoxyphenyl)-1H-pyrrole-2,5-dicarboxylate] was run?
Answer: < 10 µM

Question: `CCOC(=O)c1c(O)c(O)c(C(=O)OCC)n1-c1ccc(OCC)cc1` [UL2-008, diethyl 1-(4-ethoxyphenyl)-3,4-dihydroxy-1H-pyrrole-2,5-dicarboxylate] was tested. Which IC50 did it give?
Answer: < 10 µM

Question: `CCOC(=O)c1c(O)c(O)c(C(=O)OCC)n1-c1ccc(CC)cc1` [UL2-009, diethyl 1-(4-ethylphenyl)-3,4-dihydroxy-1H-pyrrole-2,5-dicarboxylate] was tested. Which IC50 did it give?
Answer: < 10 µM

Question: `CCOC(=O)c1c(O)c(O)c(C(=O)OCC)n1-c1ccc(C)cc1` [UL2-010, diethyl 3,4-dihydroxy-1-(p-tolyl)-1H-pyrrole-2,5-dicarboxylate] was tested. Which IC50 did it give?
Answer: < 10 µM

Question: Which IC50 does the source give for `CCOC(=O)c1c(O)c(O)c(C(=O)OCC)n1-c1ccc(OC)c(OC)c1` [UL2-011, diethyl 1-(3,4-dimethoxyphenyl)-3,4-dihydroxy-1H-pyrrole-2,5-dicarboxylate] here?
Answer: < 10 µM

Question: Which IC50 does the source give for `CCOC(=O)c1c(O)c(O)c(C(=O)OCC)n1-c1ccc(Cl)cc1` [UL2-012, diethyl 1-(4-chlorophenyl)-3,4-dihydroxy-1H-pyrrole-2,5-dicarboxylate] here?
Answer: < 10 µM

Question: For `CCOC(=O)c1c(O)c(O)c(C(=O)OCC)n1-c1ccc(C(F)(F)F)cc1` [UL2-013, diethyl 3,4-dihydroxy-1-(4-(trifluoromethyl)phenyl)-1H-pyrrole-2,5-dicarboxylate], which IC50 is on record?
Answer: < 10 µM

Question: How did the IC50 turn out when `CCOC(=O)c1c(O)c(O)c(C(=O)OCC)n1-c1cc(OC)c(OC)c(OC)c1` [UL2-014, diethyl 3,4-dihydroxy-1-(3,4,5-trimethoxyphenyl)-1H-pyrrole-2,5-dicarboxylate] was run?
Answer: < 10 µM

Question: Which IC50 does the source give for `CCOC(=O)c1c(O)c(O)c(C(=O)OCC)n1-c1ccc(OC)cc1OC` [UL2-015, diethyl 1-(2,4-dimethoxyphenyl)-3,4-dihydroxy-1H-pyrrole-2,5-dicarboxylate] here?
Answer: < 10 µM

Question: With `CCCOc1ccc(-n2c(C(=O)OCC)c(O)c(O)c2C(=O)OCC)cc1` [UL2-016, diethyl 3,4-dihydroxy-1-(4-propoxyphenyl)-1H-pyrrole-2,5-dicarboxylate] as the compound, how does the IC50 read?
Answer: < 10 µM

Question: For `CCOC(=O)c1c(O)c(O)c(C(=O)OCC)n1-c1cc(F)c(OCC)c(F)c1` [UL2-017, diethyl 1-(4-ethoxy-3,5-difluorophenyl)-3,4-dihydroxy-1H-pyrrole-2,5-dicarboxylate], which IC50 is on record?
Answer: < 10 µM

Question: Which IC50 does the source give for `CCOC(=O)c1c(O)c(O)c(C(=O)OCC)n1-c1cccc(Oc2ccccc2)c1` [UL2-018, diethyl 3,4-dihydroxy-1-(3-phenoxyphenyl)-1H-pyrrole-2,5-dicarboxylate] here?
Answer: < 10 µM

Question: For `CCOC(=O)c1c(O)c(O)c(C(=O)OCC)n1-c1ccc2c(c1)OCO2` [UL2-019, diethyl 1-(benzo[d][1,3]dioxol-5-yl)-3,4-dihydroxy-1H-pyrrole-2,5-dicarboxylate], which IC50 is on record?
Answer: 20 to 60 µM

Question: How did the IC50 turn out when `COc1ccc(-n2c(C(=O)OC(C)C)c(O)c(O)c2C(=O)OC(C)C)cc1` [UL2-020, diisopropyl 3,4-dihydroxy-1-(4-methoxyphenyl)-1H-pyrrole-2,5-dicarboxylate] was run?
Answer: < 10 µM

Question: `CCOC(=O)c1c(O)c(O)c(C(=O)OC(C)C)n1-c1ccc(OC)cc1` [UL2-021, 2-ethyl 5-isopropyl 3,4-dihydroxy-1-(4-methoxyphenyl)-1H-pyrrole-2,5-dicarboxylate] was tested. Which IC50 did it give?
Answer: < 10 µM

Question: For `COc1ccc(-n2c(C(=O)OC(C)(C)C)c(O)c(O)c2C(=O)OC(C)(C)C)cc1` [UL2-022, di-tert-butyl 3,4-dihydroxy-1-(4-methoxyphenyl)-1H-pyrrole-2,5-dicarboxylate], which IC50 is on record?
Answer: < 10 µM

Question: With `CCOC(=O)c1c(O)c(O)c(C(=O)OCC)n1-c1ccccc1OC` [UL2-023, diethyl 3,4-dihydroxy-1-(2-methoxyphenyl)-1H-pyrrole-2,5-dicarboxylate] as the compound, how does the IC50 read?
Answer: 20 to 60 µM

Question: How did the IC50 turn out when `CCOC(=O)c1c(O)c(O)c(C(=O)OCC)n1-c1ccc(C#N)cc1` [UL2-024, diethyl 1-(4-cyanophenyl)-3,4-dihydroxy-1H-pyrrole-2,5-dicarboxylate] was run?
Answer: 10 to 20 µM

Question: With `CCOC(=O)c1c(O)c(OCCO)c(C(=O)OCC)n1-c1ccc(F)cc1` [UL2-025, diethyl 1-(4-fluorophenyl)-3-hydroxy-4-(2-hydroxyethoxy)-1H-pyrrole-2,5-dicarboxylate] as the compound, how does the IC50 read?
Answer: 20 to 60 µM

Question: How did the IC50 turn out when `CCOC(=O)c1c(O)c(OCCO)c(C(=O)OCC)n1-c1ccc(OC)cc1` [UL2-026, diethyl 3-hydroxy-4-(2-hydroxyethoxy)-1-(4-methoxyphenyl)-1H-pyrrole-2,5-dicarboxylate] was run?
Answer: 20 to 60 µM

Question: With `CCOC(=O)c1c(O)c(OCC(=O)OC(C)(C)C)c(C(=O)OCC)n1-c1ccc(F)cc1` [UL2-027, diethyl 3-(2-(tert-butoxy)-2-oxoethoxy)-1-(4-fluorophenyl)-4-hydroxy-1H-pyrrole-2,5-dicarboxylate] as the compound, how does the IC50 read?
Answer: 10 to 20 µM

Question: How did the IC50 turn out when `CCOC(=O)c1c(OCC(=O)OC(C)(C)C)c(OCc2ccccc2)c(C(=O)OCC)n1-c1ccc(OC)cc1` [UL2-028, diethyl 3-(benzyloxy)-4-(2-(tert-butoxy)-2-oxoethoxy)-1-(4-methoxyphenyl)-1H-pyrrole-2,5-dicarboxylate] was run?
Answer: 20 to 60 µM

Question: For `CCOC(=O)c1c(O)c(OCC(N)=O)c(C(=O)OCC)n1-c1ccc(F)cc1` [UL2-029, diethyl 3-(2-amino-2-oxoethoxy)-1-(4-fluorophenyl)-4-hydroxy-1H-pyrrole-2,5-dicarboxylate], which IC50 is on record?
Answer: 20 to 60 µM

Question: With `CCOC(=O)c1c(O)c(OCC(=O)OC(C)(C)C)c(C(=O)OCC)n1-c1ccc(OC)cc1` [UL2-030, diethyl 3-(2-(tert-butoxy)-2-oxoethoxy)-4-hydroxy-1-(4-methoxyphenyl)-1H-pyrrole-2,5-dicarboxylate] as the compound, how does the IC50 read?
Answer: 10 to 20 µM

Question: With `CCOC(=O)c1c(O)c(OCC(N)=O)c(C(=O)OCC)n1-c1ccc(OC)cc1` [UL2-031, diethyl 3-(2-amino-2-oxoethoxy)-4-hydroxy-1-(4-methoxyphenyl)-1H-pyrrole-2,5-dicarboxylate] as the compound, how does the IC50 read?
Answer: 20 to 60 µM

Question: With `CCOC(=O)c1c(O)c(O)c(C(=O)OCC)n1-c1ccc(C(C)(C)C)cc1` [UL2-032, diethyl 1-(4-(tert-butyl)phenyl)-3,4-dihydroxy-1H-pyrrole-2,5-dicarboxylate] as the compound, how does the IC50 read?
Answer: < 10 µM

Question: Which IC50 does the source give for `CCOC(=O)c1c(O)c(O)c(C(=O)OCC)n1-c1ccc(OC)c(I)c1` [UL2-033, diethyl 3,4-dihydroxy-1-(3-iodo-4-methoxyphenyl)-1H-pyrrole-2,5-dicarboxylate] here?
Answer: < 10 µM

Question: `CCOC(=O)c1c(O)c(O)c(C(=O)OCC)n1-c1ccc(OCCOC)cc1` [UL2-034, diethyl 3,4-dihydroxy-1-(4-(2-methoxyethoxy)phenyl)-1H-pyrrole-2,5-dicarboxylate] was tested. Which IC50 did it give?
Answer: < 10 µM

Question: With `CCOC(=O)c1c(O)c(O)c(C(=O)OCC)n1-c1ccc(OCCOCCOCCOC)cc1` [UL2-035, diethyl 3,4-dihydroxy-1-(4-(2-(2-(2-methoxyethoxy)ethoxy)ethoxy)phenyl)-1H-pyrrole-2,5-dicarboxylate] as the compound, how does the IC50 read?
Answer: < 10 µM

Question: How did the IC50 turn out when `CCOC(=O)c1c(O)c(O)c(C(=O)OCC)n1-c1ccc(OCCOCCOCCOCCOC)cc1` [UL2-036, diethyl 1-(4-(2,5,8,11-tetraoxatridecan-13-yloxy)phenyl)-3,4-dihydroxy-1H-pyrrole-2,5-dicarboxylate] was run?
Answer: < 10 µM

Question: Which IC50 does the source give for `CCOC(=O)c1c(O)c(O)c(C(=O)OCC)n1-c1ccc(OCCCN2CCOCC2)cc1` [UL2-037, diethyl 3,4-dihydroxy-1-(4-(3-morpholinopropoxy)phenyl)-1H-pyrrole-2,5-dicarboxylate] here?
Answer: < 10 µM

Question: With `CCOC(=O)c1c(O)c(O)c(C(=O)OCC)n1-c1ccc(OCc2ccc(OC)cc2)cc1` [UL2-038, diethyl 3,4-dihydroxy-1-(4-((4-methoxybenzyl)oxy)phenyl)-1H-pyrrole-2,5-dicarboxylate] as the compound, how does the IC50 read?
Answer: < 10 µM
